This passage reports IC50 results from patent US11401286B2 (Tetra Discovery Partners, LLC, priority 2012, dated 2022).

pIC50: −log10 of the molar value. Counter-ions that a name gives are not always drawn. Bounds are passed on as bounds.

Chain of PDE4D7 (Q08499 other isoform, or with tags, fused parts or gaps): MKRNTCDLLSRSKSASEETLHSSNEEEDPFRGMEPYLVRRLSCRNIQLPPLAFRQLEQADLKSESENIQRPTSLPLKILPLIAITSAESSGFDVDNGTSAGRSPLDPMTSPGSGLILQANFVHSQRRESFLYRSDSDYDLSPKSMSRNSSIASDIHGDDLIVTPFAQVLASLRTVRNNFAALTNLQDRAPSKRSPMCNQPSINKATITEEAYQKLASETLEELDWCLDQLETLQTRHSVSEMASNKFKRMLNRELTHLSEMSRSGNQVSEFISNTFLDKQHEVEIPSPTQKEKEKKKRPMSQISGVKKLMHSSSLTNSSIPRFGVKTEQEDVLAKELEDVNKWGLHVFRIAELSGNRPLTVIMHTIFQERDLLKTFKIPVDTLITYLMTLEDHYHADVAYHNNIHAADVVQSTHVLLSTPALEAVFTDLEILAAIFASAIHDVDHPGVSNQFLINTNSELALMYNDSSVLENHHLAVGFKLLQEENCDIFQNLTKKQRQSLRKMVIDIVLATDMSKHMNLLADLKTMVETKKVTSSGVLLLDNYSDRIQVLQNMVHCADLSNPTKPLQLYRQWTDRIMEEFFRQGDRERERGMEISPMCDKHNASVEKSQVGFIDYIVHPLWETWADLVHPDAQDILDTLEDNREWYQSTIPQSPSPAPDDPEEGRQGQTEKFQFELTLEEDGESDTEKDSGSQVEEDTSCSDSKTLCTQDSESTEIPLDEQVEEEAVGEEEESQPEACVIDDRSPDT

The first experiment concerns the target PDE4D7 (Homo sapiens (Human), UniProt Q08499).
Details: not given
In turn, `CCCNC(=O)Cc1ccc(Cc2cc(CC)nc(-c3cccc(Cl)c3)n2)cc1` [Example 193, 2-(4-((2-(3-Chlorophenyl)-6-ethylpyrimidin-4-yl)methyl)phenyl)-N-propylacetamide] gave a pIC50 of less than 6.00.

Staying with this experiment, now noted: read-out: PDE4D7 IC50.
Turning to `COC(=O)Cc1ccc(Nc2cc(-c3cccc(Cl)c3)nc3c2CCC3)cn1` [Example 89, Methyl 2-(5-((2-(3-chlorophenyl)-6,7-dihydro-5H-cyclopenta[b]pyridin-4-yl)amino)pyridin-2-yl)acetate hydrochloride], the pIC50 is less than 6.00.
Same read-out and setting: in the case of `CCc1nc(Nc2ccc(CCCO)cc2)nc(-c2cccc(Cl)c2)n1` [Example 81, 3-(4-((4-(3-Chlorophenyl)-6-ethyl-1,3,5-triazin-2-yl)amino)phenyl)propan-1-ol] it was greater than 6.00.

The experiment is the same for the next values; noted with them: read-out: PDE4D7 IC50; PDE4D7 without asterisk.
Turning to `NC(=O)Cc1ccc(Nc2cc(-c3ccc(Cl)s3)nc3c2CCC3)cc1` [Example 245, 2-(4-((2-(5-Chlorothiophen-2-yl)-6,7-dihydro-5H-cyclopenta[b]pyridin-4-yl)amino)phenyl)acetamide hydrochloride], the pIC50 was less than 6.00.
With `NC(=O)Cc1ccc(Nc2nc(-c3ccccc3)nc3c2S(=O)(=O)CCC3)cc1` [Example 269, 2-(4-((5,5-dioxido-2-phenyl-7,8-dihydro-6H-thiopyrano[3,2-d]pyrimidin-4-yl)amino)phenyl)acetamide], the pIC50 is greater than 6.00.
For the compound `CC(C)(O)Cc1ccc(Nc2cc(-c3cccc(Cl)c3)nc3c2CCC3)cc1` [Example 98, 1-(4-((2-(3-Chlorophenyl)-6,7-dihydro-5H-cyclopenta[b]pyridin-4-yl)amino)phenyl)-2-methylpropan-2-ol], the pIC50 is less than 6.00.
For `NC(=O)Cc1ccc(Nc2cc(C3CCCCC3)nc3c2CCC3)cc1` [Example 250, 2-(4-((2-Cyclohexyl-6,7-dihydro-5H-cyclopenta[b]pyridin-4-yl)amino)phenyl)acetamide hydrochloride], the pIC50 was less than 6.00.
Consider `CN(C)CCc1ccc(Nc2nc(-c3cccc(Cl)c3)nc3c2CCC3)cc1` [Example 169, 2-(3-Chlorophenyl)-N-(4-(2-(dimethylamino)ethyl)phenyl)-6,7-dihydro-5H-cyclopenta[d]pyrimidin-4-amine hydrochloride], for which the pIC50 is less than 6.00.
For `NC(=O)Cc1ccc(Nc2nc(-c3ccc(Cl)s3)nc3c2CCC3)cc1` [Example 20, 2-[4-[[2-(5-chloro-2-thienyl)-6,7-dihydro-5H-cyclopenta[d]pyrimidin-4-yl]amino]phenyl]acetamide], the pIC50 is greater than 6.00.
Same read-out and setting: the value for `NC(=O)Cc1ccc(Nc2cc(-c3ccc[nH]3)nc3c2CCC3)cc1` [Example 133, 2-(4-((2-(1H-Pyrrol-2-yl)-6,7-dihydro-5H-cyclopenta[b]pyridin-4-yl)amino)phenyl)acetamide hydrochloride] was less than 6.00; that for `NS(=O)(=O)Cc1ccc(Nc2nc(-c3cccc(Cl)c3)nc3c2CCC3)cc1` [Example 180, (4-((2-(3-Chlorophenyl)-6,7-dihydro-5H-cyclopenta[d]pyrimidin-4-yl)amino)phenyl)methanesulfonamide] was less than 6.00; that for `NC(=O)C(CO)Cc1ccc(Nc2nc(-c3cccc(Cl)c3)nc3c2CCC3)cc1` (stereo not drawn) [Example 168, 2-(4-((2-(3-Chlorophenyl)-6,7-dihydro-5H-cyclopenta[d]pyrimidin-4-yl)amino)benzyl)-3-hydroxypropanamide] was less than 6.00.
Consider `CCc1c(Nc2ccc(CC(=O)O)cc2)cc(-c2cccc(Cl)c2)nc1C` [Example 7, 2-[4-[[6-(3-Chlorophenyl)-3-ethyl-2-methyl-4-pyridyl]amino]phenyl]acetic acid], for which the pIC50 was less than 6.00.
On the same count and under the same terms, the value for `CCc1cc(Nc2ccc(CCO)cc2)nc(C2CCCC2)n1` [Example 222, 2-(4-((2-Cyclopentyl-6-ethylpyrimidin-4-yl)amino)phenyl)ethanol] was greater than 6.00.
On to `OCCc1ccc(Nc2cc(C3CC3)nc(-c3cccc(Cl)c3)n2)nc1` [Example 214], for which the pIC50 was less than 6.00.
Turning to `OCCc1ccc(Cc2cc(-c3cccc(Cl)c3)nc(C(F)(F)F)c2)cc1` [Example 143, 2-(4-((2-(3-Chlorophenyl)-6-(trifluoromethyl)pyridin-4-yl)methyl)phenyl)ethanol], the negative logarithm of the IC50 (pIC50) is less than 6.00.
In the case of `OCCc1ccc(Nc2nc(C3CCCC3)nc3c2CCC3)cc1` [Example 217, 2-(4-((2-Cyclopentyl-6,7-dihydro-5H-cyclopenta[d]pyrimidin-4-yl)amino)phenyl)ethanol], the pIC50 was less than 6.00.
As to `COC(=O)Cc1ccc(Nc2cc(N3CCCC3)nc3c2CCC3)cc1` [Example 237, Methyl 2-(4-((2-(pyrrolidin-1-yl)-6,7-dihydro-5H-cyclopenta[b]pyridin-4-yl)amino)phenyl)acetate hydrochloride], the negative logarithm of the IC50 (pIC50) is less than 6.00.
As to `Cc1ccc(Cc2nc(-c3cccc(Cl)c3)nc3c2CCC3)cc1` [Example 69, 2-(3-Chlorophenyl)-4-(4-methylbenzyl)-6,7-dihydro-5H-cyclopenta[d]pyrimidine], the pIC50 is less than 6.00.
As to `CCc1cc(Cc2ccc(CCO)cc2)nc(C2CCCC2)n1` [Example 225, 2-(4-((2-Cyclopentyl-6-ethylpyrimidin-4-yl)methyl)phenyl)ethanol], the pIC50 was less than 6.00.
Regarding `Clc1cccc(-c2nc3c(c(Nc4ccccc4)n2)CCC3)c1` [Example 166, 2-(3-Chlorophenyl)-N-phenyl-6,7-dihydro-5H-cyclopenta[d]pyrimidin-4-amine], the pIC50 was less than 6.00.
With `CCc1cc(Nc2ccc(CCN(C)C)cc2)nc(-c2cccc(Cl)c2)n1` [Example 170, 2-(3-Chlorophenyl)-N-(4-(2-(dimethylamino)ethyl)phenyl)-6-ethylpyrimidin-4-amine hydrochloride], the pIC50 is less than 6.00.
On the same count and under the same terms, in the case of `CCc1cc(Cc2ccc(CC(=O)NCCO)cc2)nc(-c2cccc(Cl)c2)n1` [Example 195, 2-(4-((2-(3-chlorophenyl)-6-ethylpyrimidin-4-yl)methyl)phenyl)-N-(2-hydroxyethyl)acetamide] it was greater than 6.00; in that of `CCNC(=O)Cc1ccc(Nc2nc(-c3ccc(Cl)s3)nc(C)c2CC)cc1` [Example 309, 2-[4-[[2-(5-Chloro-2-thienyl)-5-ethyl-6-methyl-pyrimidin-4-yl]amino]phenyl]-N-ethyl-acetamide], greater than 6.00; in that of `OCCc1ccc(Nc2nc(OC3CCCC3)nc3c2CCC3)cc1` [Example 233, 2 2-(4-((2-(Cyclopentyloxy)-6,7-dihydro-5H-cyclopenta[d]pyrimidin-4-yl)amino)phenyl)ethanol], less than 6.00.
As to `CCc1nc(Nc2ccc(CCO)cc2)nc(-c2cccc(Cl)c2)n1` [Example 58, 2-(4-(4-(3-chlorophenyl)-6-ethyl-1,3,5-triazin-2-ylamino)phenyl)ethanol], the pIC50 was greater than 6.00.
With `CC(C)c1nc(Nc2ccc(CC(=O)O)cc2)nc(-c2ccc(Cl)s2)n1` [Example 25, 2-(4-((4-(5-chlorothiophen-2-yl)-6-isopropyl-1,3,5-triazin-2-yl)amino)phenyl)acetic acid], the pIC50 is less than 6.00.
On the same count and under the same terms, the value for `CCc1nc(Nc2ccc(CC#N)cc2)nc(-c2cccc(Cl)c2)n1` [Example 52, 2-(4-(4-(3-chlorophenyl)-6-ethyl-1,3,5-triazin-2-ylamino)phenyl)acetonitrile] was greater than 6.00; that for `O=C(O)c1ccc(Nc2cc(-c3cccc(Cl)c3)nc3c2CCC3)cc1` [Example 5, 4-[[2-(3-Chlorophenyl)-6,7-dihydro-5H-cyclopenta[b]pyridin-4-yl]amino]benzoic acid] was less than 6.00; that for `OCCc1ccc(Nc2cc(-c3ccc(Cl)cc3)nc3c2CCC3)cc1` [Example 149, 2-(4-((2-(4-Chlorophenyl)-6,7-dihydro-5H-cyclopenta[b]pyridin-4-yl)amino)phenyl)ethanol hydrochloride] was less than 6.00.
Same read-out and setting: the value for `OCCc1ccc(Nc2cc(N3CCNCC3)nc3c2CCC3)cc1` [Example 238, 2-(4-((2-(Piperazin-1-yl)-6,7-dihydro-5H-cyclopenta[b]pyridin-4-yl)amino)phenyl)ethanol hydrochloride] was less than 6.00.
For `OC(Cc1ccc(Nc2nc(-c3cccc(Cl)c3)nc3c2CCC3)cc1)C(F)(F)F` (stereo not drawn) [Example 176, 3-(4-((2-(3-Chlorophenyl)-6,7-dihydro-5H-cyclopenta[d]pyrimidin-4-yl)amino)phenyl)-1,1,1-trifluoropropan-2-ol], the pIC50 is less than 6.00.
Consider `OCC(O)c1ccc(Nc2nc(-c3cccc(Cl)c3)nc3c2CCC3)cc1` (stereo not drawn) [Example 175, 1-(4-((2-(3-Chlorophenyl)-6,7-dihydro-5H-cyclopenta[d]pyrimidin-4-yl)amino)phenyl)ethane-1,2-diol], for which the pIC50 is less than 6.00.
Regarding `C[C@H](O)Cc1ccc(Nc2nc(-c3cccc(Cl)c3)nc3c2CCC3)cc1` [Example 173, (S)-1-(4-((2-(3-Chlorophenyl)-6,7-dihydro-5H-cyclopenta[d]pyrimidin-4-yl)amino)phenyl)propan-2-ol], the pIC50 is less than 6.00.
In the case of `CCc1nc(Nc2ccc(CC(N)=O)cc2)cc(-c2cccc(Cl)c2)n1` [Example 265, 2-(4-((6-(3-chlorophenyl)-2-ethylpyrimidin-4-yl)amino)phenyl)acetamide], the pIC50 was greater than 6.00.
For the compound `CN(C(N)=O)c1ccc(Nc2cc(-c3cccc(Cl)c3)nc3c2CCC3)cc1` [Example 129, 1-(4-((2-(3-Chlorophenyl)-6,7-dihydro-5H-cyclopenta[b]pyridin-4-yl)amino)phenyl)-1-methylurea hydrochloride], the negative logarithm of the IC50 (pIC50) is less than 6.00.
On to `CCc1cc(Cc2ccc(C(C)(C)CO)cc2)nc(-c2cccc(Cl)c2)n1` [Example 197, 2-(4-((2-(3-Chlorophenyl)-6-ethylpyrimidin-4-yl)methyl)phenyl)-2-methylpropan-1-ol], for which the pIC50 was less than 6.00.
On the same count and under the same terms, in the case of `CCCc1nc(Nc2ccc(CC(=O)O)cc2)nc(-c2ccc(Cl)s2)n1` [Example 32, 2-(4-((4-(5-chlorothiophen-2-yl)-6-propyl-1,3,5-triazin-2-yl)amino)phenyl)acetic acid] it was less than 6.00; in that of `NC(=O)Cc1ccc(Nc2cc(S(=O)(=O)C3CCCC3)nc3c2CCC3)cc1` [Example 259, 2-(4-((2-(Cyclopentylsulfonyl)-6,7-dihydro-5H-cyclopenta[b]pyridin-4-yl)amino)phenyl)acetamide], less than 6.00.

What is called pIC50 is the negative decadic logarithm of the IC50, by convention in mol/L.
